Results from patent US11046680B1, “Heteroaryl-substituted triazoles as APJ receptor agonists” (priority 2016, dated 2021).

Molecular target: human APJ receptor (Homo sapiens (Human), UniProt P35414)
Assay: biochemical
Format: biochemical
Settings: [35S]GTPγS binding, CHO membranes expressing human APJ receptor; read-out: Activity hAPJ SPA EC50 IP
Method in brief: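 Membranes of a stable CHO line carrying human APJ (pFLAG-CMV-3) were used in a GTPγS binding format; buffer GDP, MgCl2 and NaCl were optimized, and plates were read after 90 min at RT.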

human APJ receptor, sequence (P35414 whole entry): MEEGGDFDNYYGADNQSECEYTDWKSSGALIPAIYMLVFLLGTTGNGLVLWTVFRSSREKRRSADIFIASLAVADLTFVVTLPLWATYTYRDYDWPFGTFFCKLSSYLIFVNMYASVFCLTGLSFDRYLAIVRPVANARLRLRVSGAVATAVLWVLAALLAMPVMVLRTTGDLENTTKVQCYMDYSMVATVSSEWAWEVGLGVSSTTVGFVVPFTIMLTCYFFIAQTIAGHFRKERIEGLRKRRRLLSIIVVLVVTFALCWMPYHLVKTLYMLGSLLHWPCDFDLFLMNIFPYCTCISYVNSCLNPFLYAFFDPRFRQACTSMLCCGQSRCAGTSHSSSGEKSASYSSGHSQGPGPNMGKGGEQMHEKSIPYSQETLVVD

Compound | EC50
CCO[C@@H](c1ncc(Cl)cn1)[C@@H](C)S(=O)(=O)Nc1nnc(-c2ccn(C)n2)n1-c1c(OC)cccc1OC (single isomer, unassigned) [Example 354.0, (1S,2R)-1-(5-chloropyrimidin-2-yl)-N-(4-(2,6-dimethoxyphenyl)-5-(1-methyl-1H-pyrazol-3-yl)-4H-1,2,4-triazol-3-yl)-1-ethoxypropane-2-sulfonamide or (1R,25)-1-(5-chloropyrimidin-2-yl)-N-(4-(2,6-dimethoxyphenyl)-5-(1-methyl-1H-pyrazol-3-yl)-4H-1,2,4-triazol-3-yl)-1-ethoxypropane-2-sulfonamide] | 0.75 nM
COc1cccc(OC)c1-n1c(NS(=O)(=O)[C@@H](C)[C@H](C)c2ncc(C)cn2)nnc1-c1cnn2c1CCC2 [Example 487.0, (2S,3R)-N-(5-(5,6-dihydro-4H-pyrrolo[1,2-b]pyrazol-3-yl)-4-(2,6-dimethoxyphenyl)-4H-1,2,4-triazol-3-yl)-3-(5-methylpyrimidin-2-yl)butane-2-sulfonamide] | 0.62 nM
COc1cccc(OC)c1-n1c(NS(=O)(=O)[C@H](C)[C@@H](C)c2ncc(Cl)cn2)nnc1-c1n[nH]c2ccccc12 [Example 430.0] | 2.8 nM
CCn1ccc(-c2nnc(NS(=O)(=O)[C@@H](C)[C@H](OC)c3ncc(C)cn3)n2-c2c(OC)cccc2OC)n1 [Example 387.0, (1R,2S)-N-(4-(2,6-Dimethoxyphenyl)-5-(1-ethyl-1H-pyrazol-3-yl)-4H-1,2,4-triazol-3-yl)-1-methoxy-1-(5-methylpyrimidin-2-yl)propane-2-sulfonamide] | 0.55 nM
COc1ccccc1-n1c(NS(=O)(=O)CCc2ccc(Cl)cc2)nnc1-c1ccc(F)s1 [Example 239.0, 2-(4-chlorophenyl)-N-(5-(5-fluorothiophen-2-yl)-4-(2-methoxyphenyl)-4H-1,2,4-triazol-3-yl)ethanesulfonamide] | 210 nM
COc1cccc(OC)c1-n1c(NS(=O)(=O)CC[C@@H](O)C2CCCC2)nnc1-c1cccs1 (mixture of isomers) [Example 362.0, (R)-3-Cyclopentyl-N-(4-(2,6-dimethoxyphenyl)-5-(thiophen-2-yl)-4H-1,2,4-triazol-3-yl)-3-hydroxypropane-1-sulfonamide and (S)-3-cyclopentyl-N-(4-(2,6-dimethoxyphenyl)-5-(thiophen-2-yl)-4H-1,2,4-triazol-3-yl)-3-hydroxypropane-1-sulfonamide] | 3 nM
COc1cccc(OC)c1-n1c(NS(=O)(=O)[C@@H](C)[C@H](OC)c2ncc(C)cn2)nnc1-c1noc2ccccc12 [Example 87.0, (1R,2S)-N-(5-(benzo[d]isoxazol-3-yl)-4-(2,6-dimethoxyphenyl)-4H-1,2,4-triazol-3-yl)-1-methoxy-1-(5-methylpyrimidin-2-yl)propane-2-sulfonamide] | 82 nM
COc1cccc(OC)c1-n1c(NS(=O)(=O)[C@@H](C)[C@H](C)c2ncc(F)cn2)nnc1-c1cncc(C)n1 [Example 209.0, (2S,3R)-N-(4-(2,6-dimethoxyphenyl)-5-(6-methyl-2-pyrazinyl)-4H-1,2,4-triazol-3-yl)-3-(5-fluoro-2-pyrimidinyl)-2-butanesulfonamide] | 1.5 nM
COc1cccc(OC)c1-n1c(NS(=O)(=O)[C@H](C)[C@@H](OC)c2ncc(F)cn2)nnc1-c1ccn(C)n1 (single isomer, unassigned) [Example 117.0, (1S,2R)-N-(4-(2,6-dimethoxyphenyl)-5-(1-methyl-1H-pyrazol-3-yl)-4H-1,2,4-triazol-3-yl)-1-(5-fluoropyrimidin-2-yl)-1-methoxypropane-2-sulfonamide or (1R,2S)-N-(4-(2,6-dimethoxyphenyl)-5-(1-methyl-1H-pyrazol-3-yl)-4H-1,2,4-triazol-3-yl)-1-(5-fluoropyrimidin-2-yl)-1-methoxypropane-2-sulfonamide] | 0.69 nM
COc1cccc(OC)c1-n1c(NS(=O)(=O)[C@@H](C)Cc2ncc(F)cn2)nnc1-c1cccnn1 (single isomer, unassigned) [Example 33.0, (2S)-N-(4-(2,6-dimethoxyphenyl)-5-(3-pyridazinyl)-4H-1,2,4-triazol-3-yl)-1-(5-fluoro-2-pyrimidinyl)-2-propanesulfonamide or (2R)-N-(4-(2,6-dimethoxyphenyl)-5-(3-pyridazinyl)-4H-1,2,4-triazol-3-yl)-1-(5-fluoro-2-pyrimidinyl)-2-propanesulfonamide] | 190 nM
COc1cccc(OC)c1-n1c(NS(=O)(=O)C[C@H](OC)c2ccc(Cl)cn2)nnc1-c1ccn(C)n1 (single isomer, unassigned) [Example 376.0, (R)-2-(5-Chloropyridin-2-yl)-N-(4-(2,6-dimethoxyphenyl)-5-(1-methyl-1H-pyrazol-3-yl)-4H-1,2,4-triazol-3-yl)-2-methoxyethanesulfonamide or (S)-2-(5-chloropyridin-2-yl)-N-(4-(2,6-dimethoxyphenyl)-5-(1-methyl-1H-pyrazol-3-yl)-4H-1,2,4-triazol-3-yl)-2-methoxyethanesulfonamide] | 1.7 nM
COc1cccc(OC)c1-n1c(NS(=O)(=O)[C@@H](C)[C@H](C)c2ncc(C)cn2)nnc1-c1cc(C)[nH]n1 [Example 346.0, (2S,3R)-N-(4-(2,6-dimethoxyphenyl)-5-(5-methyl-1H-pyrazol-3-yl)-4H-1,2,4-triazol-3-yl)-3-(5-methyl-2-pyrimidinyl)-2-butanesulfonamide] | 1.5 nM
COc1cccc(OC)c1-n1c(NS(=O)(=O)[C@@H](C)[C@H](O)c2cnc(C)cn2)nnc1-c1cc(C)[nH]n1 [Example 347.0, (1R,2S)-N-(4-(2,6-Dimethoxyphenyl)-5-(5-methyl-1H-pyrazol-3-yl)-4H-1,2,4-triazol-3-yl)-1-hydroxy-1-(5-methyl-2-pyrazinyl)-2-propanesulfonamide] | 3.8 nM
(2S)-N-(4-(2,6-dimethoxyphenyl)-5-(6-methoxy-2-pyrazinyl)-4H-1,2,4-triazol-3-yl)-1-(5-fluoro-2-pyrimidinyl)-2-propanesulfonamide and (2R)-N-(4-(2,6-dimethoxyphenyl)-5-(6-methoxy-2-pyrazinyl)-4H-1,2,4-triazol-3-yl)-1-(5-fluoro-2-pyrimidinyl)-2-propanesulfonamide [Example 177.0] | 4.5 nM
COc1cccc(OC)c1-n1c(NS(=O)(=O)[C@@H](C)[C@H](OC)c2ncc(C)cn2)nnc1-c1noc2ccc(Br)cc12 [Example 414.0] | 210 nM
CO[C@H](c1ncc(Cl)cn1)[C@H](C)S(=O)(=O)Nc1nnc(-c2cnn3ccccc23)n1C1CC1 [Example 507.0, (1R,2S)-1-(5-chloropyrimidin-2-yl)-N-(4-cyclopropyl-5-(pyrazolo[1,5-a]pyridin-3-yl)-4H-1,2,4-triazol-3-yl)-1-methoxypropane-2-sulfonamide] | 38 nM
COc1cccc(OC)c1-n1c(NS(=O)(=O)[C@@H](C)[C@H](OC)c2ccc(C#N)cc2C#N)nnc1-c1ccn(C)n1 (mixture of isomers) [Example 264.0, (1S,2R)-1-(2,4-dicyanophenyl)-N-(4-(2,6-dimethoxyphenyl)-5-(1-methyl-1H-pyrazol-3-yl)-4H-1,2,4-triazol-3-yl)-1-methoxy-2-propanesulfonamide and (1R,2S)-1-(2,4-dicyanophenyl)-N-(4-(2,6-dimethoxyphenyl)-5-(1-methyl-1H-pyrazol-3-yl)-4H-1,2,4-triazol-3-yl)-1-methoxy-2-propanesulfonamide] | 0.8 nM
